This is an account of results in patent publication US12187722B2, “Small molecule inhibitors of TEAD transcription factors” (The General Hospital Corporation, priority 2019, dated 2025).

Sequence of TEAD2 (Q15562 whole entry): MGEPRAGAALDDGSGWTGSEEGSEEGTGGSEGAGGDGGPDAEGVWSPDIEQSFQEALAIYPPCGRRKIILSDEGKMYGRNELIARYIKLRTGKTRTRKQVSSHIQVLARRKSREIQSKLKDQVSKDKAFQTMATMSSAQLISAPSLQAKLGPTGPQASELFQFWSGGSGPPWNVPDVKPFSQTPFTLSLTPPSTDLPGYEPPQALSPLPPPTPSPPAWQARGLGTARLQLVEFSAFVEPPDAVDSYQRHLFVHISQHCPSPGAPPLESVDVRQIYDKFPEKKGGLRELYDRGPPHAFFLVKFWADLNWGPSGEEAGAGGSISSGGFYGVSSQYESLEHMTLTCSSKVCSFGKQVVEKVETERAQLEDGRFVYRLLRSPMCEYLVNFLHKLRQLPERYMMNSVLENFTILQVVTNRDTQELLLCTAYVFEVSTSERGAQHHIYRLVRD

The first assay concerns the target TEAD2 (Homo sapiens (Human), UniProt Q15562). Description: In vitro palmitoylation (TEAD2 autopalmitoylation, streptavidin blot). The format is biochemical. The following applies: compound at 10 μM. The protocol:
Recombinant GST-TEAD2 or His6TEAD2 (500 ng) protein was pre-incubated with the compounds at indicated concentrations for 15 min. and then incubated with 1 μM of alkyne palmitoyl-5 CoA (Cayman Chemical) for 30 min or 50 mM MES, pH 6.4, followed by Click reaction with biotin-azide as previously described (Zheng, B. et al., J. Am. Chem. Soc., 2013, 135, 7082-7085). Click reaction was performed with 100 μM biotin-azide, 1 mM tris(2-carboxyethyl) phosphine hydrochloride (TCEP), 100 μM tris[(1-benzyl-1H-1,2,3-triazol-4-yl) methyl] amine (TBTA) and 1 mM CuSO4 for 1 h at RT.
The reactions were terminated by the addition of 12 μL of 6×SDS-sample loading buffer (50 mM Tris-HCl, pH 6.8, 6% SDS, 48% Glycerol, 0.03% Bromophenol Blue, 30 mM EDTA, 9% MeSH). Samples were analysed by SDS-PAGE and Western blot was performed by probing with streptavidin HRP and histidine HRP antibodies independently. Bands intensity obtained from streptavidin blot were quantified using BIORAD, Gel doc system and the percentage of inhibition of Tead2 auto palmitoylation is determined by comparing to the DMSO control treated samples.
These compounds were tested for activity in inhibiting TEAD2 palmitoylation in the assay described above.
On to `O=C(Nc1ccc(C23CC4CC(CC(C4)C2)C3)cc1)c1cccnc1Nc1cccc(C(F)(F)F)c1`, for which 10 µM produced 50% inhibition. The compound `C=CC(=O)c1ccccc1Nc1ccc(Nc2ccc(C34CC5CC(CC(C5)C3)C4)cc2)cc1` displayed an inhibition at 10 µM of 5%. For `O=C(Nc1ccc(C23CC4CC(CC(C4)C2)C3)cc1)c1ccc2nc[nH]c2c1`, the inhibition at 10 µM is 5%.

For the compound `O=C(OCC(O)CO)c1ccccc1Nc1ccc(Nc2ccc(C34CC5CC(CC(C5)C3)C4)cc2)cc1` (stereo not drawn), the inhibition at 10 µM amounted to 80%. Same read-out and setting: the figure for `O=C(Nc1ccc(C23CC4CC(CC(C4)C2)C3)cc1)Nc1ccc2nc[nH]c2c1` is 20%; for `Clc1cc(C23CC4CC(CC(C4)C2)C3)ccc1Nc1ccc(Nc2ccccc2-c2nnn[nH]2)cc1` it is 20%. With `O=C(Nc1ccc(C23CC4CC(CC(C4)C2)C3)cc1Cl)c1ccc2nc[nH]c2c1`, testing at 10 µM gave an inhibition of 20%. Compound `O=C(CN1CCC[C@H]1C(=O)O)Nc1ccc(C23CC4CC(CC(C4)C2)C3)cc1` showed an inhibition at 10 µM of 8%. The same measure, in the same setting: under `N#Cc1cc(Nc2ccc(C34CC5CC(CC(C5)C3)C4)cc2)ccc1Nc1ccccc1C(=O)O` stands 80%.

As for `CC(C)(C)OC(=O)c1ccc(Nc2ccc(Nc3ccccc3C(=O)O)cc2)cc1`, testing at 10 µM gave an inhibition of 100%. In the case of `CC(C)c1ccccc1-c1ccc(NC(=O)CC2CN(C(=O)OC(C)(C)C)C2)cc1`, testing at 10 µM gave an inhibition of 100%.

Still in this assay, the particulars now being: compound at 10 μM; Table 2.
`O=C(Nc1ccc(Nc2ccc(C34CC5CC(CC(C5)C3)C4)cc2Cl)cc1)[C@H]1CCC[C@H]1C(=O)O` (stereo in doubt) [compound 288] yielded an inhibition at 10 µM of 53%. In turn, `CC(C)COc1ccc(Nc2ccc(N(C)c3ccc(C45CC6CC(CC(C6)C4)C5)cc3)cc2)c(C(=O)O)c1` [CP-453] registered an inhibition at 10 µM of 0%.

The same assay, now with this note: compound at 10 μM; Table 3.
On to `COCCC(=O)Nc1ccc(C(=O)OC)c(Nc2ccc(N(C)c3ccc(C45CC6CC(CC(C6)C4)C5)cc3)cc2)c1` [CP-472], for which the inhibition at 10 µM is 1%. Turning to `COCCC(=O)Nc1ccc(C(=O)O)c(Nc2ccc(N(C)c3ccc(C45CC6CC(CC(C6)C4)C5)cc3)cc2)c1` [CP-473], the inhibition at 10 µM is 50%.

In turn, `COc1ccc(Nc2ccc(N(C)c3ccc(C45CC6CC(CC(C6)C4)C5)cc3)cc2)c(CO)c1` [CP-516] gave an inhibition at 10 µM of 20%.

Consider `CN(C)CCOc1ccc(Nc2ccc(N(C)c3ccc(C45CC6CC(CC(C6)C4)C5)cc3)cc2)c(C(=O)O)c1` [CP-526], for which the inhibition at 10 µM was determined as 23%. Turning to `COc1ccc(Nc2ccc(N(C)c3ccc(Cl)cc3)cc2)c(C(=O)O)c1` [CP-535], the inhibition at 10 µM amounted to 54%. Take `COCCOc1ccc(Nc2ccc(N(C)c3ccc(C4CCCCC4)cc3)cc2)c(C(=O)O)c1` [CP-536]: the inhibition at 10 µM turned out to be 84%.

`COc1ccc(Nc2ccc(N(C)c3ccc(C45CC6CC(CC(C6)C4)C5)cc3)cc2F)c(C(=O)O)c1` [CP-537] registered an inhibition at 10 µM of 73%. In turn, `O=C(O)c1ccccc1Nc1cnc(Oc2ccc(C34CC5CC(CC(C5)C3)C4)cc2Cl)cn1` [CP-540] came in with an inhibition at 10 µM of 75%. `CN(c1ccc(Nc2ncccc2C(=O)O)cc1)c1ccc(C(F)(F)F)cc1` [CP-541] registered an inhibition at 10 µM of 80%. Compound `COc1ccc(Nc2ccc(N(C)c3ccc(Cl)cc3Cl)cc2)c(C(=O)O)c1` [CP-542] displayed an inhibition at 10 µM of 49%. In turn, `O=C(O)c1ccccc1Nc1ccc(Oc2ccc(C(F)(F)F)cc2Cl)cc1` [CP-543] displayed an inhibition at 10 µM of 98%. With `COc1ccc(Nc2ccc(Oc3ccc(C(F)(F)F)cc3Cl)cc2)c(C(=O)O)c1` [CP-544], the inhibition at 10 µM came out at 98%.

For `COc1ccc(Nc2ccc(N(C)c3ccccc3OC)cc2)c(C(=O)O)c1` [CP-545], the inhibition at 10 µM was 6%. In turn, `COc1ccc(Nc2ccc(N(C)c3ccc(N4CCOCC4)cc3)cc2)c(C(=O)O)c1` [CP-547] came in with an inhibition at 10 µM of 18%. `COc1ccc(Nc2ccc(N(C)c3ccc(C4CCC(F)(F)CC4)cc3)cc2)c(C(=O)O)c1` [CP-552]: testing at 10 µM gave an inhibition of 74%. Same read-out and setting: the figure for `COc1ccc(Nc2ccc(N(C)c3ccc(C4CCC4)cc3)cc2)c(C(=O)O)c1` [CP-556] is 61%; for `COc1ccc(Nc2ccc(N(C)c3ccc(C4=CCC(F)(F)CC4)cc3)cc2)c(C(=O)O)c1` [CP-557] it is 34%; for `CN(c1ccc(Nc2ncccc2C(=O)O)cc1)c1ccc(C2CCCCC2)cc1` [CP-558] it is 66%. `O=C(O)c1ccccc1Nc1cnc(Oc2ccc(C3CCCCC3)cc2Cl)cn1` [CP-559] returned an inhibition at 10 µM of 79%. Same read-out and setting: under `Cc1cc(Oc2ccc(C34CC5CC(C)(CC(C)(C5)C3)C4)cc2Cl)ccc1Nc1ccccc1C(=O)O` [CP-561] stands 90%. Compound `COc1ccc(Nc2ccc(N(C)c3ccc(C(F)(F)F)cc3)cc2C)c(C(=O)O)c1` [CP-563] had an inhibition at 10 µM of 80%.

`COc1ccc(Nc2ccc(Oc3ccc(C45CC6CC(C)(CC(C)(C6)C4)C5)cc3Cl)cc2C)c(C(=O)O)c1` [CP-564] returned an inhibition at 10 µM of 89%. `COc1ccc(Nc2ccc(N(C)c3ccc(CN4CCCCC4)cc3)cc2)c(C(=O)O)c1` [CP-567] gave an inhibition at 10 µM of 6%. Still for that read-out and setting: under `COc1ccc(Nc2ccc(N(C)c3ccc(OCC(F)(F)F)cc3)cc2F)c(C(=O)O)c1` [CP-568] stands 46%; under `COc1ccc(Nc2ccc(F)cc2Oc2ccc(C34CC5CC(C)(CC(C)(C5)C3)C4)cc2Cl)c(C(=O)O)c1` [CP-569], 59%.

Turning to `COc1ccc(Nc2ccc(N(C)c3ccc(C(F)(F)F)cc3)cc2F)c(C(=O)O)c1` [CP-572], 10 µM produced 72% inhibition.

Compound `COc1ccc(Nc2ccc(N(C)c3ccc(S(F)(F)(F)(F)F)cc3)cc2F)c(C(=O)O)c1` [CP-573] showed an inhibition at 10 µM of 74%. Still for that read-out and setting: under `COc1ccc(Nc2ccc(N(C)c3ccc(C4CCC(C)CC4)cc3)cc2)c(C(=O)O)c1` (stereo not drawn) [CP-574] stands 91%; under `COc1ccc(Nc2ccc(Oc3ccc(C(F)F)cc3Cl)cc2)c(C(=O)O)c1` [CP-575], 47%; under `COc1ccc(Nc2ccc(N(C)c3ccc(C(F)(F)F)cn3)cc2)c(C(=O)O)c1` [CP-576], 42%. Regarding `COc1ccc(Nc2ccc(N(C)c3ccc(C4CC5CCC4C5)cc3)cc2C)c(C(=O)O)c1` (stereo not drawn) [CP-577], testing at 10 µM gave an inhibition of 79%. Regarding `COc1ccc(Nc2ccc(N(C)c3ccc(C4CCCCC4)nc3)cc2)c(C(=O)O)c1` [CP-578], the inhibition at 10 µM was determined as 31%. `Cc1cc(N(C)c2ccc(C3CCCCC3)cc2)ccc1Nc1ccc(C(F)(F)F)cc1C(=O)O` [CP-579] yielded an inhibition at 10 µM of 61%. The compound `Cc1cc(N(C)c2ccc(C3CCCCC3)cc2)ccc1Nc1ccc(OC(F)(F)F)cc1C(=O)O` [CP-580] registered an inhibition at 10 µM of 58%. Compound `COc1ccc(Nc2ccc(N(C)c3ccc(C4CCCCC4)cn3)cc2)c(C(=O)O)c1` [CP-581] came in with an inhibition at 10 µM of 40%. Compound `COc1ccc(Nc2ccc(N(C)c3ccc(C4CCN(C)CC4)cc3)cc2)c(C(=O)O)c1` [CP-582] came in with an inhibition at 10 µM of 0%.

`COc1ccc(Nc2cccc(C(=O)Nc3ccc(C(F)(F)F)cc3)c2)c(C(=O)O)c1` [CP-586]: the inhibition at 10 µM came to 40%. `COc1ccc(Oc2ccc(N(C)c3ccc(C(F)(F)F)cc3)cc2)c(C(=O)O)c1` [CP-587] returned an inhibition at 10 µM of 36%. `COc1ccc(Nc2ccc(N(C)c3nc(C(F)(F)F)cs3)cc2)c(C(=O)O)c1` [CP-588] had an inhibition at 10 µM of 36%.

Regarding `COc1ccc(Nc2ccc(Oc3ccc(C4CCCCC4)cc3Cl)nc2)c(C(=O)O)c1` [CP-591], the inhibition at 10 µM was 88%. `COc1ccc(Nc2ccc(N(C)c3ccc(C(F)(F)F)cc3)nc2)c(C(=O)O)c1` [CP-592]: the inhibition at 10 µM amounted to 40%. The same measure, in the same setting: the figure for `COc1ccc(Nc2cnc(N(C)c3ccc(C4CCCCC4)cc3)nc2)c(C(=O)O)c1` [CP-594] is 46%; for `COc1ccc(Nc2ccc(N(C)c3ccc(S(F)(F)(F)(F)F)cc3)nc2)c(C(=O)O)c1` [CP-595] it is 51%; for `COc1ccc(Nc2ccc(N(C)c3ccc(OC(F)(F)F)cc3)nc2)c(C(=O)O)c1` [CP-596] it is 48%. `COc1ccc(Nc2ccc(N(C)c3nc(C4CCCCC4)cs3)cc2)c(C(=O)O)c1` [CP-597] came in with an inhibition at 10 µM of 63%. With `COc1ccc(Nc2cnc(Oc3ccc(C4CCCCC4)cc3Cl)cc2C)c(C(=O)O)c1` [CP-599], at 10 µM the inhibition was 57%. `COc1ccc(Nc2ccc(Oc3ccc(OC(F)(F)F)cc3Cl)nc2)c(C(=O)O)c1` [CP-600] came in with an inhibition at 10 µM of 37%. For `COc1ccc(Nc2ccc(Oc3ccc(C(F)(F)F)cc3Cl)nc2)c(C(=O)O)c1` [CP-601], the inhibition at 10 µM is 46%. Compound `COc1ccc(Nc2cnc(N(C)c3ccc(C(F)(F)F)cc3)nc2)c(C(=O)O)c1` [CP-602] showed an inhibition at 10 µM of 5%. In turn, `COc1ccc(Nc2ccc(N(C)c3ccc(C4CCC(C(F)(F)F)CC4)cc3)cc2)c(C(=O)O)c1` (stereo not drawn) [CP-603] came in with an inhibition at 10 µM of 83%.

The compound `COc1ccc(Nc2ccc(N(C)c3ccc(C(F)(F)F)cc3)cc2)c(C(N)=O)c1` [CP-605] gave an inhibition at 10 µM of 47%. Take `CNC(=O)c1cc(OC)ccc1Nc1ccc(N(C)c2ccc(C(F)(F)F)cc2)cc1` [CP-606]: the inhibition at 10 µM came to 63%. Take `COc1ccc(Nc2ccc(N(C)c3ccc(C(F)(F)F)cc3)cc2)c(C(=O)N(C)C)c1` [CP-607]: 10 µM produced 37% inhibition.
